The values that follow come from US7160893B2, “Pyrimidine-2,4-dione derivatives as matrix metalloproteinase inhibitors” (Warner-Lambert Company, priority 2002, dated 2007).

By IC50 is commonly meant the concentration needed to halve the response being measured.

The target of the first assay is MMP-13 catalytic domain (Homo sapiens, UniProt P45452). Briefly: Inhibition of MMP-13 catalytic domain (thiopeptolide substrate hydrolysis assay). To be noted: compounds of Example 33, Biological Table 1; read-out: MMP-13CD IC50. The assay is classed as biochemical. The text has this:
The assays measure the amount by which a test compound reduces the hydrolysis of a thiopeptolide substrate catalyzed by a matrix metalloproteinase enzyme. Such assays are described in detail by Ye et al., in Biochemistry, 1992;31(45):11231–11235, which is incorporated herein by reference. One such assay is described below in Biological Method 1.
Thiopeptolide substrates show virtually no decomposition or hydrolysis at or below neutral pH in the absence of a matrix metalloproteinase enzyme. A typical thiopeptolide substrate commonly utilized for assays is Ac-Pro-Leu-Gly-thioester-Leu-Leu-Gly-OEt. A 100 μL assay mixture will contain 50 mM of N-2-hydroxyethylpiperazine-N′-2-ethanesulfonic acid buffer (“HEPES,” pH 7.0), 10 mM CaCl2, 100 μM thiopeptolide substrate, and 1 mM 5,5′-dithio-bis-(2-nitro-benzoic acid) (DTNB). The thiopeptolide substrate concentration may be varied, for example from 10 to 800 μM to obtain Km and Kcat values. The change in absorbance at 405 nm is monitored on a Thermo Max microplate reader (molecular Devices, Menlo Park, Calif.) at room temperature (22° C.). The calculation of the amount of hydrolysis of the thiopeptolide substrate is based on E412=13600 M^−1 cm^−1 for the DTNB-derived product 3-carboxy-4-nitrothiophenoxide. Assays are carried out with and without matrix metalloproteinase inhibitor compounds, and the amount of hydrolysis is compared for a determination of inhibitory activity of the test compounds.
Test compounds were evaluated at various concentrations in order to determine their respective IC50 values, the micromolar concentration of compound required to cause a 50% inhibition of catalytic activity of the respective enzyme.
Some representative compounds of Formula I have been evaluated for their ability to inhibit MMP-13. Inhibitor activity versus other MMPs with the compounds may be determined using, for example, MMP-1FL, which refers to full length interstitial collagenase; MMP-2FL, which refers to full length Gelatinase A; MMP-3CD, which refers to the catalytic domain of stromelysin; MMP-7FL, which refers to full length matrilysin; MMP-9FL, which refers to full length Gelatinase B; MMP-13CD, which refers to the catalytic domain of collagenase 3; and MMP-14CD, which refers to the catalytic domain of MMP-14. Test compounds can be evaluated at various concentrations in order to determine their respective IC50 values, the micromolar concentration of compound required to cause a 50% inhibition of the hydrolytic activity of the respective enzyme.
For the compound `Cc1c(SCCOc2ccc(F)cc2)n(C)c(=O)n(Cc2ccccc2)c1=O` [Example 33a, 3-Benzyl-6-[2-(4-fluoro-phenoxy)-ethylsulfanyl]-1,5-dimethyl-1H-pyrimidine-2,4-dione], the IC50 was more than 100 µM. As to `Cc1c(SCc2ccc3nc(C(F)(F)F)cc(Cl)c3c2)n(C)c(=O)n(Cc2ccccc2)c1=O` [Example 33b, 3-Benzyl-6-(4-chloro-2-trifluoromethyl-quinolin-6-ylmethylsulfanyl)-1,5-dimethyl-1H-pyrimidine-2,4-dione], the IC50 is more than 100 µM.

Take `Cc1c(SCCCc2ccccc2)n(C)c(=O)n(Cc2ccccc2)c1=O` [Example 33c, 3-Benzyl-1,5-dimethyl-6-(3-phenyl-propylsulfanyl)-1H-pyrimidine-2,4-dione]: the IC50 was more than 100 µM. In the case of `Cc1c(SCCC(=O)c2ccc(F)cc2)n(C)c(=O)n(Cc2ccccc2)c1=O` [Example 33d, 3-Benzyl-6-[3-(4-fluoro-phenyl)-3-oxo-propylsulfanyl]-1,5-dimethyl-1H-pyrimidine-2,4-dione], the concentration for half-maximal inhibition (IC50) is more than 100 µM. Still for that read-out and setting: next, `Cc1c(SCc2ccc3ccccc3c2)n(C)c(=O)n(Cc2ccccc2)c1=O` [Example 33e, 3-Benzyl-1,5-dimethyl-6-(naphthalen-2-ylmethylsulfanyl)-1H-pyrimidine-2,4-dione]: more than 100 µM. Take `Cc1c(SCC(=O)c2ccc(-c3ccccc3)cc2)n(C)c(=O)n(Cc2ccccc2)c1=O` [Example 33f, 3-Benzyl-6-(2-biphenyl-4-yl-2-oxo-ethylsulfanyl)-1,5-dimethyl-1H-pyrimidine-2,4-dione]: the IC50 is more than 100 µM.

On to `Cc1c(SCc2ccccc2-c2ccccc2)n(C)c(=O)n(Cc2ccccc2)c1=O` [Example 33g, 3-Benzyl-6-(biphenyl-2-ylmethylsulfanyl)-1,5-dimethyl-1 H-pyrimidine-2,4-dione], for which the IC50 was more than 100 µM. On the same count and under the same terms, next, `COc1ccc(C(=O)CSc2c(C)c(=O)n(Cc3ccccc3)c(=O)n2C)cc1` [Example 33h, 3-Benzyl-6-[2-(4-methoxy-phenyl)-2-oxo-ethylsulfanyl]-1,5-dimethyl-1H-pyrimidine-2,4-dione]: more than 100 µM; `Cc1c(SCc2ccc3nc(C(F)(F)F)cc(Cl)c3c2)[nH]c(=O)n(Cc2ccccc2)c1=O` [Example 33i, 3-Benzyl-6-(4-chloro-2-trifluoromethyl-quinolin-6-ylmethylsulfanyl)-5-methyl-1H-pyrimidine-2,4-dione]: more than 100 µM; `Cc1onc(-c2ccccc2)c1C(=O)CSc1[nH]c(=O)n(Cc2ccccc2)c(=O)c1C` [Example 33j, 3-Benzyl-5-methyl-6-[2-(5-methyl-3-phenyl-isoxazol-4-yl)-2-oxo-ethylsulfanyl]-1H-pyrimidine-2,4-dione]: 23 µM. The same measure, in the same setting: next, `COc1ccc2nc(CSc3[nH]c(=O)n(Cc4ccccc4)c(=O)c3C)c(=O)oc2c1` [Example 33k, 3-Benzyl-6-(7-methoxy-2-oxo-2H-1,4-benzoxazin-3-ylmethylsulfanyl)-5-methyl-1H-pyrimidine-2,4-dione]: more than 30 µM; `Cc1c(SCC(=O)c2cc(-c3ccccc3)no2)[nH]c(=O)n(Cc2ccccc2)c1=O` [Example 33l, 3-Benzyl-5-methyl-6-[2-oxo-2-(3-phenyl-isoxazol-5-yl)-ethylsulfanyl]-1H-pyrimidine-2,4-dione]: more than 30 µM; `Cc1c(SCCCc2ccccc2)[nH]c(=O)n(Cc2ccccc2)c1=O` [Example 33m, 3-Benzyl-5-methyl-6-(3-phenyl-propylsulfanyl)-1H-pyrimidine-2,4-dione]: more than 100 µM. Same read-out and setting: with `Cc1c(SCCC(=O)c2ccc(F)cc2)[nH]c(=O)n(Cc2ccccc2)c1=O` [Example 33n, 3-Benzyl-6-[3-(4-fluoro-phenyl)-3-oxo-propylsulfanyl]-5-methyl-1H-pyrimidine-2,4-dione] the figure was more than 30 µM; with `Cc1c(SCc2ccc3ccccc3c2)[nH]c(=O)n(Cc2ccccc2)c1=O` [Example 33o, 3-Benzyl-5-methyl-6-(naphthalen-2-ylmethylsulfanyl)-1H-pyrimidine-2,4-dione], more than 100 µM; with `Cc1c(SCC(=O)c2ccc(-c3ccccc3)cc2)[nH]c(=O)n(Cc2ccccc2)c1=O` [Example 33p, 3-Benzyl-6-(2-biphenyl-4-yl-2-oxo-ethylsulfanyl)-5-methyl-1H-pyrimidine-2,4-dione], more than 30 µM. Regarding `Cc1c(SCc2nc3ccccc3[nH]2)[nH]c(=O)n(Cc2ccccc2)c1=O` [Example 33q, 6-(1H-Benzimidazol-2-ylmethylsulfanyl)-3-benzyl-5-methyl-1H-pyrimidine-2,4-dione], the IC50 is more than 100 µM.

Regarding `Cc1c(SCCCC(=O)c2ccc(Br)cc2)[nH]c(=O)n(Cc2ccccc2)c1=O` [Example 33r, 3-Benzyl-6-[4-(4-bromo-phenyl)-4-oxo-butylsulfanyl]-5-methyl-1H-pyrimidine-2,4-dione], the IC50 is more than 100 µM. Same read-out and setting: with `Cc1c(SCCCCOc2ccccc2)[nH]c(=O)n(Cc2ccccc2)c1=O` [Example 33s, 3-Benzyl-5-methyl-6-(4-phenoxy-butylsulfanyl)-1H-pyrimidine-2,4-dione] the figure was more than 100 µM; with `Cc1c(SCC(=O)c2cc(-c3ccc(Cl)cc3Cl)no2)[nH]c(=O)n(Cc2ccccc2)c1=O` [Example 33t, 3-Benzyl-6-{2-[3-(2,4-dichloro-phenyl)-isoxazol-5-yl]-2-oxo-ethylsulfanyl}-5-methyl-1H-pyrimidine-2,4-dione], more than 30 µM. `Cc1c(SCc2ccccc2-c2ccccc2)[nH]c(=O)n(Cc2ccccc2)c1=O` [Example 33u, 3-Benzyl-6-(biphenyl-2-ylmethylsulfanyl)-5-methyl-1 H-pyrimidine-2,4-dione]: the IC50 is more than 100 µM. Still for that read-out and setting: with `COc1ccc(C(=O)CSc2[nH]c(=O)n(Cc3ccccc3)c(=O)c2C)cc1` [Example 33v, 3-Benzyl-6-[2-(4-methoxy-phenyl)-2-oxo-ethylsulfanyl]-5-methyl-1H-pyrimidine-2,4-dione] the figure was 18 µM.

The assay is the same for the next values; noted with them: values in text, given as about; read-out: IC50 with MMP-13 catalytic domain.
As for `Cc1c(SCc2cc(-c3ccc(Cl)cc3)on2)[nH]c(=O)n(Cc2ccccc2)c1=O` [Example 6, 3-Benzyl-6-[5-(4-chloro-phenyl)-isoxazol-3-ylmethylsulfanyl]-5-methyl-1H-pyrimidine-2,4-dione], the IC50 was approximately 2.1 µM. On the same count and under the same terms, next, `COc1ccc(-c2cc(CSc3[nH]c(=O)n(Cc4ccccc4)c(=O)c3C)on2)cc1` [Example 7, 3-Benzyl-6-[3-(4-methoxy-phenyl)-isoxazol-5-ylmethylsulfanyl]-5-methyl-1H-pyrimidine-2,4-dione]: approximately 0.44 µM. On the same count and under the same terms, with `Cc1c(SCc2cc(-c3ccc(Cl)cc3)no2)[nH]c(=O)n(Cc2ccccc2)c1=O` [Example 20, 3-Benzyl-6-[3-(4-chloro-phenyl)-isoxazol-5-ylmethylsulfanyl]-5-methyl-1H-pyrimidine-2,4-dione] the figure was approximately 1.2 µM. Consider `COc1ccc2nc(Nc3[nH]c(=O)n(Cc4ccccc4)c(=O)c3C)sc2c1` [Example 29, 3-Benzyl-6-(6-methoxy-benzothiazol-2-ylamino)-5-methyl-1H-pyrimidine-2,4-dione], for which the IC50 is approximately 0.44 µM.
